Assay: (§1) The drug is tested on Z-029 corresponding to rat gut metagenome with ENA study accession number: PRJEB37062 and ENA sample accession number: ERS12561828 for biotransformation under anaerobic condition. The drug concentrations were measured over 9 timepoints collected between 0 and 24 hours of incubation by liquid-chromatography-coupled mass spectrometry (LC–MS)
Conditions: 2 µM
For `C[C@@H]1C[C@H]2[C@@H]3CCC4=CC(=O)C=C[C@]4(C)[C@@]3(F)[C@@H](O)C[C@]2(C)[C@@]1(O)C(=O)CO` [DEXAMETHASONE], the “Bacterial Biotransformation” value was “Compound NOT metabolized”.
In the case of `CC(O)(CS(=O)(=O)c1ccc(F)cc1)C(=O)Nc1ccc(C#N)c(C(F)(F)F)c1` (configuration not stated) [BICALUTAMIDE], the “Bacterial Biotransformation” value is reported as “Compound NOT metabolized”.

Assay: as §1, with “on WLS-240” for “on Z-029”, “to human” for “to rat”, “number: ERS12561773” for “number: ERS12561828”
Conditions: 2 µM
In the case of `CC(O)(CS(=O)(=O)c1ccc(F)cc1)C(=O)Nc1ccc(C#N)c(C(F)(F)F)c1` (configuration not stated) [BICALUTAMIDE], the “Bacterial Biotransformation” value is reported as “Compound NOT metabolized”.

Assay: as §1, with “Z-012” for “Z-029”, “to” for “to rat gut”, “ERS12561812” for “ERS12561828”
Conditions: 2 µM
With `C[C@@H]1C[C@H]2[C@@H]3CCC4=CC(=O)C=C[C@]4(C)[C@@]3(F)[C@@H](O)C[C@]2(C)[C@@]1(O)C(=O)CO` [DEXAMETHASONE] the “Bacterial Biotransformation” value was “Compound metabolized”.
In the case of `CC(O)(CS(=O)(=O)c1ccc(F)cc1)C(=O)Nc1ccc(C#N)c(C(F)(F)F)c1` (configuration not stated) [BICALUTAMIDE], the “Bacterial Biotransformation” value is reported as “Compound NOT metabolized”.

Assay: as §1, with “on Z-003” for “on Z-029”, “to pig” for “to rat”, “number: ERS12561803” for “number: ERS12561828”
Conditions: 2 µM
In the case of `C[C@@H]1C[C@H]2[C@@H]3CCC4=CC(=O)C=C[C@]4(C)[C@@]3(F)[C@@H](O)C[C@]2(C)[C@@]1(O)C(=O)CO` [DEXAMETHASONE], the “Bacterial Biotransformation” value is reported as “Compound metabolized”.
For `CC(O)(CS(=O)(=O)c1ccc(F)cc1)C(=O)Nc1ccc(C#N)c(C(F)(F)F)c1` (configuration not stated) [BICALUTAMIDE], the “Bacterial Biotransformation” value was “Compound NOT metabolized”.

Assay: as §1, with “Z-005” for “Z-029”, “to” for “to rat gut”, “ERS12561805” for “ERS12561828”
Conditions: 2 µM
For `C[C@@H]1C[C@H]2[C@@H]3CCC4=CC(=O)C=C[C@]4(C)[C@@]3(F)[C@@H](O)C[C@]2(C)[C@@]1(O)C(=O)CO` [DEXAMETHASONE], the “Bacterial Biotransformation” value was “Compound metabolized”.
In the case of `CC(O)(CS(=O)(=O)c1ccc(F)cc1)C(=O)Nc1ccc(C#N)c(C(F)(F)F)c1` (configuration not stated) [BICALUTAMIDE], the “Bacterial Biotransformation” value is reported as “Compound NOT metabolized”.

Conditions: human gut metagenome, 24 h, 2 µM
In the case of `C[C@@H]1C[C@H]2[C@@H]3CCC4=CC(=O)C=C[C@]4(C)[C@@]3(F)[C@@H](O)C[C@]2(C)[C@@]1(O)C(=O)CO` [DEXAMETHASONE], the “Bacterial Biotransformation” value is reported as “Compound NOT metabolized”.
For `CC(O)(CS(=O)(=O)c1ccc(F)cc1)C(=O)Nc1ccc(C#N)c(C(F)(F)F)c1` (configuration not stated) [BICALUTAMIDE], the “Bacterial Biotransformation” value was “Compound NOT metabolized”.

Assay: as §1, with “on WLS-350” for “on Z-029”, “to human” for “to rat”, “number: ERS12561789” for “number: ERS12561828”
Conditions: 2 µM
For `C[C@@H]1C[C@H]2[C@@H]3CCC4=CC(=O)C=C[C@]4(C)[C@@]3(F)[C@@H](O)C[C@]2(C)[C@@]1(O)C(=O)CO` [DEXAMETHASONE], the “Bacterial Biotransformation” value was “Compound NOT metabolized”.
With `CC(O)(CS(=O)(=O)c1ccc(F)cc1)C(=O)Nc1ccc(C#N)c(C(F)(F)F)c1` (configuration not stated) [BICALUTAMIDE] the “Bacterial Biotransformation” value was “Compound NOT metabolized”.

Conditions: human gut metagenome, 24 h, 2 µM
Remark: another data set of the same source
In the case of `C[C@@H]1C[C@H]2[C@@H]3CCC4=CC(=O)C=C[C@]4(C)[C@@]3(F)[C@@H](O)C[C@]2(C)[C@@]1(O)C(=O)CO` [DEXAMETHASONE], the “Bacterial Biotransformation” value is reported as “Compound NOT metabolized”.
With `CC(O)(CS(=O)(=O)c1ccc(F)cc1)C(=O)Nc1ccc(C#N)c(C(F)(F)F)c1` (configuration not stated) [BICALUTAMIDE] the “Bacterial Biotransformation” value was “Compound NOT metabolized”.

Assay: as §1, with “Z-007” for “Z-029”, “ERS12561807” for “ERS12561828”
Conditions: 2 µM
In the case of `C[C@@H]1C[C@H]2[C@@H]3CCC4=CC(=O)C=C[C@]4(C)[C@@]3(F)[C@@H](O)C[C@]2(C)[C@@]1(O)C(=O)CO` [DEXAMETHASONE], the “Bacterial Biotransformation” value is reported as “Compound NOT metabolized”.
In the case of `CC(O)(CS(=O)(=O)c1ccc(F)cc1)C(=O)Nc1ccc(C#N)c(C(F)(F)F)c1` (configuration not stated) [BICALUTAMIDE], the “Bacterial Biotransformation” value is reported as “Compound NOT metabolized”.

Conditions: human gut metagenome, 24 h, 2 µM
Remark: another data set of the same source
With `C[C@@H]1C[C@H]2[C@@H]3CCC4=CC(=O)C=C[C@]4(C)[C@@]3(F)[C@@H](O)C[C@]2(C)[C@@]1(O)C(=O)CO` [DEXAMETHASONE] the “Bacterial Biotransformation” value was “Compound NOT metabolized”.
In the case of `CC(O)(CS(=O)(=O)c1ccc(F)cc1)C(=O)Nc1ccc(C#N)c(C(F)(F)F)c1` (configuration not stated) [BICALUTAMIDE], the “Bacterial Biotransformation” value is reported as “Compound NOT metabolized”.

Conditions: human gut metagenome, 24 h, 2 µM
Remark: another data set of the same source
In the case of `C[C@@H]1C[C@H]2[C@@H]3CCC4=CC(=O)C=C[C@]4(C)[C@@]3(F)[C@@H](O)C[C@]2(C)[C@@]1(O)C(=O)CO` [DEXAMETHASONE], the “Bacterial Biotransformation” value is reported as “Compound NOT metabolized”.
For `CC(O)(CS(=O)(=O)c1ccc(F)cc1)C(=O)Nc1ccc(C#N)c(C(F)(F)F)c1` (configuration not stated) [BICALUTAMIDE], the “Bacterial Biotransformation” value was “Compound NOT metabolized”.

Conditions: human gut metagenome, 24 h, 2 µM
Remark: another data set of the same source
With `C[C@@H]1C[C@H]2[C@@H]3CCC4=CC(=O)C=C[C@]4(C)[C@@]3(F)[C@@H](O)C[C@]2(C)[C@@]1(O)C(=O)CO` [DEXAMETHASONE] the “Bacterial Biotransformation” value was “Compound NOT metabolized”.
For `CC(O)(CS(=O)(=O)c1ccc(F)cc1)C(=O)Nc1ccc(C#N)c(C(F)(F)F)c1` (configuration not stated) [BICALUTAMIDE], the “Bacterial Biotransformation” value was “Compound NOT metabolized”.

Conditions: human gut metagenome, 24 h, 2 µM
Remark: another data set of the same source
With `C[C@@H]1C[C@H]2[C@@H]3CCC4=CC(=O)C=C[C@]4(C)[C@@]3(F)[C@@H](O)C[C@]2(C)[C@@]1(O)C(=O)CO` [DEXAMETHASONE] the “Bacterial Biotransformation” value was “Compound NOT metabolized”.
In the case of `CC(O)(CS(=O)(=O)c1ccc(F)cc1)C(=O)Nc1ccc(C#N)c(C(F)(F)F)c1` (configuration not stated) [BICALUTAMIDE], the “Bacterial Biotransformation” value is reported as “Compound NOT metabolized”.

Conditions: human gut metagenome, 24 h, 2 µM
Remark: another data set of the same source
With `C[C@@H]1C[C@H]2[C@@H]3CCC4=CC(=O)C=C[C@]4(C)[C@@]3(F)[C@@H](O)C[C@]2(C)[C@@]1(O)C(=O)CO` [DEXAMETHASONE] the “Bacterial Biotransformation” value was “Compound NOT metabolized”.
For `CC(O)(CS(=O)(=O)c1ccc(F)cc1)C(=O)Nc1ccc(C#N)c(C(F)(F)F)c1` (configuration not stated) [BICALUTAMIDE], the “Bacterial Biotransformation” value was “Compound NOT metabolized”.

Assay: as §1, with “on Z-018” for “on Z-029”, “to pig” for “to rat”, “number: ERS12561817” for “number: ERS12561828”
Conditions: 2 µM
For `C[C@@H]1C[C@H]2[C@@H]3CCC4=CC(=O)C=C[C@]4(C)[C@@]3(F)[C@@H](O)C[C@]2(C)[C@@]1(O)C(=O)CO` [DEXAMETHASONE], the “Bacterial Biotransformation” value was “Compound metabolized”.
For `CC(O)(CS(=O)(=O)c1ccc(F)cc1)C(=O)Nc1ccc(C#N)c(C(F)(F)F)c1` (configuration not stated) [BICALUTAMIDE], the “Bacterial Biotransformation” value was “Compound NOT metabolized”.

Conditions: human gut metagenome, 24 h, 2 µM
Remark: another data set of the same source
For `C[C@@H]1C[C@H]2[C@@H]3CCC4=CC(=O)C=C[C@]4(C)[C@@]3(F)[C@@H](O)C[C@]2(C)[C@@]1(O)C(=O)CO` [DEXAMETHASONE], the “Bacterial Biotransformation” value was “Compound NOT metabolized”.
With `CC(O)(CS(=O)(=O)c1ccc(F)cc1)C(=O)Nc1ccc(C#N)c(C(F)(F)F)c1` (configuration not stated) [BICALUTAMIDE] the “Bacterial Biotransformation” value was “Compound NOT metabolized”.

Conditions: human gut metagenome, 24 h, 2 µM
Remark: another data set of the same source
In the case of `C[C@@H]1C[C@H]2[C@@H]3CCC4=CC(=O)C=C[C@]4(C)[C@@]3(F)[C@@H](O)C[C@]2(C)[C@@]1(O)C(=O)CO` [DEXAMETHASONE], the “Bacterial Biotransformation” value is reported as “Compound NOT metabolized”.
For `CC(O)(CS(=O)(=O)c1ccc(F)cc1)C(=O)Nc1ccc(C#N)c(C(F)(F)F)c1` (configuration not stated) [BICALUTAMIDE], the “Bacterial Biotransformation” value was “Compound NOT metabolized”.

Conditions: human gut metagenome, 24 h, 2 µM
Remark: another data set of the same source
With `C[C@@H]1C[C@H]2[C@@H]3CCC4=CC(=O)C=C[C@]4(C)[C@@]3(F)[C@@H](O)C[C@]2(C)[C@@]1(O)C(=O)CO` [DEXAMETHASONE] the “Bacterial Biotransformation” value was “Compound NOT metabolized”.
With `CC(O)(CS(=O)(=O)c1ccc(F)cc1)C(=O)Nc1ccc(C#N)c(C(F)(F)F)c1` (configuration not stated) [BICALUTAMIDE] the “Bacterial Biotransformation” value was “Compound NOT metabolized”.

Conditions: human gut metagenome, 24 h, 2 µM
Remark: another data set of the same source
With `C[C@@H]1C[C@H]2[C@@H]3CCC4=CC(=O)C=C[C@]4(C)[C@@]3(F)[C@@H](O)C[C@]2(C)[C@@]1(O)C(=O)CO` [DEXAMETHASONE] the “Bacterial Biotransformation” value was “Compound NOT metabolized”.
In the case of `CC(O)(CS(=O)(=O)c1ccc(F)cc1)C(=O)Nc1ccc(C#N)c(C(F)(F)F)c1` (configuration not stated) [BICALUTAMIDE], the “Bacterial Biotransformation” value is reported as “Compound NOT metabolized”.

— ChEMBL document CHEMBL5724914, “Linking interpersonal differences in gut microbiota composition and drug biotransformation activity” (2024)
Note: call rule not given here.
